Data on twelve compounds can be found in patent US20220387602A1, “BIFUNCTIONAL DEGRADERS AND THEIR METHODS OF USE” (NOVARTIS AG, priority 2019, published 2022).

The target of assay [1] is T1, CRBN (Homo sapiens, UniProt Q96SW2). As to the kind of experiment: CRBN displacement assay Format 2a (fluorescence polarization, 1536-well, Envision reader). Format: binding. An outline of the steps:
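Competition format: compound first equilibrated with CRBN protein (nominally 40 nM) for 45 min at RT, then challenged 45 min with 5 nM BodipyFL-conjugated lenalidomide tracer. FP measured at 480 nm excitation/535 nm emission; AC50 derived by four-parameter logistic fit of %-saturation.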
(Fluorescence polarisation rises when a labelled molecule tumbles more slowly, as on binding a larger partner.)

The target of assay [2] is T1, CRBN. In words: CRBN displacement assay Format 2b (as 2a, quadruplicate, PHERAstar reader). Format: binding. As for the experimental part:
Assay conditions are similar to Format 2a with the exception of • a. The assay run in quadruplicate • b. PHERAstar reader (BMG Labtech, Offenburg, Germany) was used instead of an Envision reader • c. For the determination of AC50 values, assays were performed at room temperature in 1536-well plates with a total assay volume of […] per well. The test compounds were dissolved and diluted in 100% DMSO. For the assays, 30 nL of DMSO or compound solution were added per well, followed by the addition of 3 μL protein solution (80 nM protein in 1× assay buffer).

Assay [3] addresses T2, hTNNI3K WT (Homo sapiens, UniProt Q59H18).
T2 construct: expressed in transfected cells
T2 sequence (Q59H18 1-835): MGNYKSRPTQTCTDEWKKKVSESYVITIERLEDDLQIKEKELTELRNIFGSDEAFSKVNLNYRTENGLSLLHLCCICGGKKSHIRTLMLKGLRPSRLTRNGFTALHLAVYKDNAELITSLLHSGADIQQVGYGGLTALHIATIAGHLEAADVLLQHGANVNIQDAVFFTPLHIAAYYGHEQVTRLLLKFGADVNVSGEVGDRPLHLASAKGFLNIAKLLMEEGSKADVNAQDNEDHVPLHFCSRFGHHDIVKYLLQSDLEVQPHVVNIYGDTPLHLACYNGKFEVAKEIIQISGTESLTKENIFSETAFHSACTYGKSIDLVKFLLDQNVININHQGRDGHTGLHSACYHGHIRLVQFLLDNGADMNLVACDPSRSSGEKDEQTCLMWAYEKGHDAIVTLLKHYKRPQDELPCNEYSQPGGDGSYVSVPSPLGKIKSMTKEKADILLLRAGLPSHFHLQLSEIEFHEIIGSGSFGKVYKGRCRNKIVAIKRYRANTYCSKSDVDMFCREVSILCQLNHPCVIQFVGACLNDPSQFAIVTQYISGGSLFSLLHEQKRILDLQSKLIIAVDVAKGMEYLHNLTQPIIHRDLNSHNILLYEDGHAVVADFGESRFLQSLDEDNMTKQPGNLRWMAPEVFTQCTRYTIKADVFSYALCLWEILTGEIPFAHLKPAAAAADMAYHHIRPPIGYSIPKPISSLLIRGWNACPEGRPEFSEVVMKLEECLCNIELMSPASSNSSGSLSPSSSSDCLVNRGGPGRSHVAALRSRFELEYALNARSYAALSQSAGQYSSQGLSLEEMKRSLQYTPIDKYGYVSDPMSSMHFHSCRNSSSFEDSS
As to the kind of experiment: TNNI3K degradation in HEK293 cells overexpressing hTNNI3K WT (western blot). Format: cell-based. Particulars: FIGS. 4A-4B; for TNNI3K degradation (western blot): concentration dependent; for concentration from which no residual TNNI3K was detected: western blot, 18 hours. (In general: Immunoblotting shows a protein as a band on a membrane.)
Method: HEK293-hTNNI3K stable cells were seeded at 400,000 cells/well in 6-well plate and incubated at 37° C. and 5% CO2 overnight in DMEM containing 10% FBS. The following day growth media was replaced with low-serum media containing DMEM with 0.5% FBS and incubated at 37° C. and 5% CO2 overnight. Following overnight serum starvation, cells were treated with compounds at 20 μM starting dose with 1:5 serial dilution prepared in low-serum media. Media was removed and compounds were added to 6-well plate at 2 mL per well and cells were incubated at 37° C. and 5% CO2 for 18 hours. Following compound treatment cells were washed with cold DPBS containing protease/phosphatase inhibitor cocktail (Thermo #1861284) and lysed in RIPA buffer on ice (Pierce #89900, also containing protease/phosphatase inhibitors). Following sonication and frequent vortexing at 4° C. for approximately 1 hour, samples were centrifuged at 14,000 rpm for 20 minutes. Supernatants were collected for protein samples. Protein concentration was determined using BioRad DC Protein Assay (FIGS. 3A and 3C).
Samples for western blotting were prepared in loading buffer (Thermo #NP0007) and 8 μg protein was loaded per lane in 4-12% Novex Bis-Tris gel and run at 60V for approximately 1 hour. Gels were transferred to PVDF membrane using semi-dry transfer device iBlot 2 from Thermo Scientific. Blots were blocked using Superblock T20 blocking solution for 2 hours at room temperature (Thermo #37536). Blots were then incubated with primary antibodies overnight with gentle shaking at 4° C. (TNNI3K #ab136954 and Beta-Actin CST #3700) at 1:1000 and 1:2000 dilution respectively. Following overnight primary antibody incubation, blots were washed 3 times on rocker for 5 minutes each with 1×TBS-T at room temperature. Blots were then incubated with secondary HRP-anti-rabbit at 1:2000 dilution (CST #7074) for 2 hours at room temperature. Blots were then washed with 1×TBS-T 3 times on rocker for 5 minutes each. Protein bands were detected using BioRad Chemi-Doc station and Supersignal West Dura substrate (Thermo #34075). Protein bands were quantified using ImageJ software. TNNI3K bands were normalized to beta-actin loading control. Data are graphed by fold change of cpd over DMSO control.
Here the amount of total normalized TNNI3K expression levels were monitored upon compound treatment in a dose dependent manner. IC50 refers to the concentration at which 50% reduction in protein expression was observed.

Assay [4] has as its target T1, CRBN. As to the kind of experiment: CRBN displacement assay Format 1 (fluorescence polarization, BodipyFL-lenalidomide probe Compound HH). Format: binding. Summed up: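 Fluorescence polarization competition: CRBN (nominal 100 nM final) pre-incubated 45 min at room temperature with compound, then BodipyFL-lenalidomide probe added (5 nM final; 0.9% DMSO).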
For assay [5], the target named is T3, BTK (Homo sapiens, UniProt Q06187).
T3 construct: the BTK open reading frame (ORF) was first shuttled from a pcDNA-DEST40-BTK vector; expressed in transfected cells; host or cells: HEK293A (Invitrogen R70507), lentiviral transduction, blasticidin selection
In words: BTK-GFP protein abundance flow cytometry assay in HEK293A. The note with it: 24 h. Format: cell-based. An outline of the steps:
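HEK293A cells stably expressing bicistronic BTK-GFP-iresRFP were treated 24 h at 37° C with 10-point 1:3 dilutions from 10 μM, DMSO at 0.1%. GFP was read by flow cytometry as median of 5,000 single cells, scaled between RFP-only cells (0%) and DMSO controls (100%). DC50 = concentration at 50% degradation; Amax = % protein remaining at maximal degradation.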

[6] abbreviates: concentration at which 50% of reference probe Compound HH is displaced, 40 nM protein, 5 nM probe, read-out: CRBN AC50 [μM] Format 2a.
Where [7] appears, read: concentration at which 50% of reference probe Compound HH is displaced, quadruplicate, read-out: CRBN AC50 [μM] Format 2b.

T1 sequence (Q96SW2 whole entry): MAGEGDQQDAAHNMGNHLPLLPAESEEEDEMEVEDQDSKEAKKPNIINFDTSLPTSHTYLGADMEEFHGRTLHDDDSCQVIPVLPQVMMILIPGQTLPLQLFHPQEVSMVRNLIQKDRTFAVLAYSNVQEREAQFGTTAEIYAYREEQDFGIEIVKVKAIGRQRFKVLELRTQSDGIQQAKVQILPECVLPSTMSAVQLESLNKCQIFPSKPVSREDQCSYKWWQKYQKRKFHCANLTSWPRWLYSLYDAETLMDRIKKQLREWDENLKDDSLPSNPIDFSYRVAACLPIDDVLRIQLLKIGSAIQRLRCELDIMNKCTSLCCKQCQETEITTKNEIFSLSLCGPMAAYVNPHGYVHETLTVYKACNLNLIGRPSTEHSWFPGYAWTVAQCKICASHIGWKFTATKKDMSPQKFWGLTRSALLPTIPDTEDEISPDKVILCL
T3 sequence (Q06187 whole entry): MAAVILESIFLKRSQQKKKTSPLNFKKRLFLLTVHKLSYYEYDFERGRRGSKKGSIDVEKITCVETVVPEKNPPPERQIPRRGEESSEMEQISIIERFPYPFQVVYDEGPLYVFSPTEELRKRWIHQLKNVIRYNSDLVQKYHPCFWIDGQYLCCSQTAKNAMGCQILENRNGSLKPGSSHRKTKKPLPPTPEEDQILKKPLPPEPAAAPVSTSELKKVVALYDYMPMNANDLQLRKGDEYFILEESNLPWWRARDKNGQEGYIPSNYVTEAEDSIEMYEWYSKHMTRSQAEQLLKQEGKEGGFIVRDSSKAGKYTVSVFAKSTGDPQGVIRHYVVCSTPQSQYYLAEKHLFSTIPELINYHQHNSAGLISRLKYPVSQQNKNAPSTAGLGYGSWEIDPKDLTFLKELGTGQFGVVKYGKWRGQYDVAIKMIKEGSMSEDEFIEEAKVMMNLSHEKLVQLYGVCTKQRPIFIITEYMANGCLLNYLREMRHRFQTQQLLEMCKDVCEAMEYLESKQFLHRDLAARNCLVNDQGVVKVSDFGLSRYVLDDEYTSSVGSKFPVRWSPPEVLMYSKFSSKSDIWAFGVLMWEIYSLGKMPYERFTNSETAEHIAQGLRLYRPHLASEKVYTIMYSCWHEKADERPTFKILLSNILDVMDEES

The AC50 is the concentration giving half of the maximal activity seen. With `CCOC(=O)c1cncc(N2CCC(=O)NC2=O)c1` [ILB-78, Ethyl 5-(2,4-dioxotetrahydropyrimidin-1(2H)-yl)nicotinate], the AC50 in assay [1] (setting [6]) amounted to 5.72 µM; in assay [2] (setting [7]), 5.07 µM.
Regarding `O=C1CCN(c2cncc(Cl)c2)C(=O)N1` [ILB-73, 1-(5-Chloropyridin-3-yl)dihydropyrimidine-2,4(1H,3H)-dione], the AC50 in assay [1] was 15 µM; in assay [2] it was 11.9 µM.
For `O=C1CCN(c2cn[nH]c2)C(=O)N1` [ILB-79, 1-(1H-Pyrazol-4-yl)dihydropyrimidine-2,4(1H,3H)-dione] the same measures were 7.15 µM and 6.78 µM.
With `COC(=O)c1cncc(N2CCC(=O)NC2=O)c1` [ILB-72, Methyl 5-(2,4-dioxotetrahydropyrimidin-1(2H)-yl)nicotinate], the values for the AC50 in assay [1] (setting [6]) and in assay [2] (setting [7]) were 29.4 µM and 18 µM, respectively.
Take `CCOC(=O)Cc1cncc(N2CCC(=O)NC2=O)c1` [ILB-71, Ethyl 2-(5-(2,4-dioxotetrahydropyrimidin-1(2H)-yl)pyridin-3-yl)acetate]: the AC50 in assay [1] (setting [6]) amounted to 6.01 µM; in assay [2] (setting [7]), 8 µM.
`CNS(=O)(=O)c1ccc(N(C)C)c(Nc2ncnc3cc(OCCCN4CCN(C(=O)N5CCN(CCC#Cc6ccc(N7CCC(=O)NC7=O)cc6)CC5)CC4)ccc23)c1` [Compound 21, 4-(dimethylamino)-3-((7-(3-(4-(4-(4-(4-(2,4-dioxotetrahydropyrimidin-1(2H)-yl)phenyl)but-3-yn-1-yl)piperazine-1-carbonyl)piperazin-1-yl)propoxy)quinazolin-4-yl)amino)-N-methylbenzenesulfonamide]: in assay [3], the “TNNI3K degradation (western blot)” value is listed as “full degradation” and the “concentration from which no residual TNNI3K was detected” value is reported as 6 nM.
For the compound `C=C(C)c1cncc(N2CCC(=O)NC2=O)c1` [ILB-74, 1-(5-(Prop-1-en-2-yl)pyridin-3-yl)dihydropyrimidine-2,4(1H,3H)-dione], the AC50 in assay [1] (setting [6]) is 6.28 µM; in assay [2] (setting [7]), 4.61 µM.
`O=C1CCN(c2cncc(O)c2)C(=O)N1` [ILB-77, 1-(5-Hydroxypyridin-3-yl)dihydropyrimidine-2,4(1H,3H)-dione]: the AC50 in assay [1] (setting [6]) was found to be 0.5 µM; in assay [2] (setting [7]), 0.3 µM.
`O=C1CCN(c2cncc(Br)c2)C(=O)N1` [ILB-76, 1-(5-Bromopyridin-3-yl)dihydropyrimidine-2,4(1H,3H)-dione]: the AC50 in assay [1] (setting [6]) stood at 8.09 µM; in assay [2] (setting [7]), 15.3 µM.
As for `CC(O)c1ccc(N2CCC(=O)NC2=O)cn1` (centres unmarked) [ILB-75, 1-(6-(1-Hydroxyethyl)pyridin-3-yl)dihydropyrimidine-2,4(1H,3H)-dione], the AC50 in assay [1] is more than 50 µM; in assay [2], 28.7 µM. The “CRBN Amax* (% at 50 μM) Format 2a” value in assay [1] (greatest effect as % displacement of the reference probe at the highest concentration tested (50 μM), given where AC50 >50 μM, 45 min) turned out to be 40%.
The DC50 is the midpoint of the concentration-degradation curve. A lower DC50 goes with degradation at low concentration. Compound `Cc1c(NC(=O)c2ccc(C(C)(C)O)cc2F)cc(F)cc1-c1ncnc2[nH]c(-c3ccc(CN(C)CCCCCCOc4cccc(N5CCC(=O)NC5=O)c4)cc3)cc12` [Compound 16, N-(3-(6-(4-(((6-(3-(2,4-Dioxotetrahydropyrimidin-1(2H)-yl)phenoxy)hexyl)(methyl)amino)methyl)phenyl)-7H-pyrrolo[2,3-d]pyrimidin-4-yl)-5-fluoro-2-methylphenyl)-2-fluoro-4-(2-hydroxypropan-2-yl)benzamide] came in with an AC50 in assay [4] of 0.916 µM. Also, the “BTK degradation Amax” value in assay [5] (% protein remaining at the concentration at which maximum degradation is seen, HEK293A) came out at 15.9%. In addition, in assay [5] (concentration at which 50% maximal degradation was observed, HEK293A BTK-GFP sensor cells), half-maximal degradation (DC50) was put at 0.0226 µM.
Turning to `CNS(=O)(=O)c1ccc(N(C)C)c(Nc2ncnc3cc(OCCCN4CCC5(CC4)CN(CC#Cc4ccc(N6CCC(=O)NC6=O)cc4)CCO5)ccc23)c1` [Compound 22, 4-(dimethylamino)-3-((7-(3-(4-(3-(4-(2,4-dioxotetrahydropyrimidin-1(2H)-yl)phenyl)prop-2-yn-1-yl)-1-oxa-4,9-diazaspiro[5.5]undecan-9-yl)propoxy)quinazolin-4-yl)amino)-N-methylbenzenesulfonamide], in assay [3], the “TNNI3K degradation (western blot)” value was “full degradation” and the “concentration from which no residual TNNI3K was detected” value was determined as 32 nM.
